Laboratory results as given in ChEMBL document CHEMBL5316287 (J Med Chem, 2023).

How the values were obtained:
LNCaP [1] = experiment: Inhibition of H3K18 acetylation in AR-positive human LNCaP cells at 3.9 to 1000 nM incubated for 72 hrs by Western blot analysis; format: functional, cell-based; settings: dose 3.9-1000 nM
VCaP [2] = experiment: Antitumor activity against human VCaP cells xenografted in castrated NSG mouse assessed as tumor growth inhibition at 0.3 mg/kg,po qd for 33 days consecutively; format: functional; settings: 792 h, time 33 day, read-out: TGI
[3] = Cmax in BALB/cAnNCrlCrlj mouse at 10 mg/kg,po; format: ADME, organism-based; design: dose 10 mg/kg, route po; settings: in vivo
[4] = Unbound AUC in BALB/cAnNCrlCrlj mouse at 10 mg/kg,po; format: ADME, organism-based; settings: in vivo
[5] = target: Histone acetyltransferase KAT2B (Homo sapiens, UniProt Q92831); experiment: Inhibition of PCAF (unknown origin) biotinylated H3 (1 to […])-GGK peptide as substrate incubated for 1 hr in presence of acetyl-coA by AlphaLISA assay
VCaP [6] = experiment: Antiproliferative activity against AR-positive human VCaP cells assessed as cell growth inhibition incubated for 7 days by CellTiter-Glo assay; format: functional; settings: 168 h, time 7 day
[7] = Half life in BALB/cAnNCrlCrlj mouse at 10 mg/kg,po; format: ADME, organism-based; settings: in vivo
PC-3 = experiment: Antiproliferative activity against AR-negative human PC-3 cells assessed as cell growth inhibition incubated for 7 days by CellTiter-Glo assay; format: functional; settings: PC-3, 168 h, time 7 day
[8] = 1-Octanol/PBS partition coefficient, logD of the compound at pH 7.4 incubated for 30 mins by shake flask technique based HPLC-LC/MS analysis; format: physicochemical
[9] = target: Histone acetyltransferase p300 (Homo sapiens, UniProt Q09472); experiment: Inhibition of EP300 in human LK2 cells assessed as reduction in intracellular H3K27 acetylation incubated for 3 hrs by chemiluminescence based ELISA; format: cell-based
Histone acetyltransferase p300, sequence (Q09472 whole entry): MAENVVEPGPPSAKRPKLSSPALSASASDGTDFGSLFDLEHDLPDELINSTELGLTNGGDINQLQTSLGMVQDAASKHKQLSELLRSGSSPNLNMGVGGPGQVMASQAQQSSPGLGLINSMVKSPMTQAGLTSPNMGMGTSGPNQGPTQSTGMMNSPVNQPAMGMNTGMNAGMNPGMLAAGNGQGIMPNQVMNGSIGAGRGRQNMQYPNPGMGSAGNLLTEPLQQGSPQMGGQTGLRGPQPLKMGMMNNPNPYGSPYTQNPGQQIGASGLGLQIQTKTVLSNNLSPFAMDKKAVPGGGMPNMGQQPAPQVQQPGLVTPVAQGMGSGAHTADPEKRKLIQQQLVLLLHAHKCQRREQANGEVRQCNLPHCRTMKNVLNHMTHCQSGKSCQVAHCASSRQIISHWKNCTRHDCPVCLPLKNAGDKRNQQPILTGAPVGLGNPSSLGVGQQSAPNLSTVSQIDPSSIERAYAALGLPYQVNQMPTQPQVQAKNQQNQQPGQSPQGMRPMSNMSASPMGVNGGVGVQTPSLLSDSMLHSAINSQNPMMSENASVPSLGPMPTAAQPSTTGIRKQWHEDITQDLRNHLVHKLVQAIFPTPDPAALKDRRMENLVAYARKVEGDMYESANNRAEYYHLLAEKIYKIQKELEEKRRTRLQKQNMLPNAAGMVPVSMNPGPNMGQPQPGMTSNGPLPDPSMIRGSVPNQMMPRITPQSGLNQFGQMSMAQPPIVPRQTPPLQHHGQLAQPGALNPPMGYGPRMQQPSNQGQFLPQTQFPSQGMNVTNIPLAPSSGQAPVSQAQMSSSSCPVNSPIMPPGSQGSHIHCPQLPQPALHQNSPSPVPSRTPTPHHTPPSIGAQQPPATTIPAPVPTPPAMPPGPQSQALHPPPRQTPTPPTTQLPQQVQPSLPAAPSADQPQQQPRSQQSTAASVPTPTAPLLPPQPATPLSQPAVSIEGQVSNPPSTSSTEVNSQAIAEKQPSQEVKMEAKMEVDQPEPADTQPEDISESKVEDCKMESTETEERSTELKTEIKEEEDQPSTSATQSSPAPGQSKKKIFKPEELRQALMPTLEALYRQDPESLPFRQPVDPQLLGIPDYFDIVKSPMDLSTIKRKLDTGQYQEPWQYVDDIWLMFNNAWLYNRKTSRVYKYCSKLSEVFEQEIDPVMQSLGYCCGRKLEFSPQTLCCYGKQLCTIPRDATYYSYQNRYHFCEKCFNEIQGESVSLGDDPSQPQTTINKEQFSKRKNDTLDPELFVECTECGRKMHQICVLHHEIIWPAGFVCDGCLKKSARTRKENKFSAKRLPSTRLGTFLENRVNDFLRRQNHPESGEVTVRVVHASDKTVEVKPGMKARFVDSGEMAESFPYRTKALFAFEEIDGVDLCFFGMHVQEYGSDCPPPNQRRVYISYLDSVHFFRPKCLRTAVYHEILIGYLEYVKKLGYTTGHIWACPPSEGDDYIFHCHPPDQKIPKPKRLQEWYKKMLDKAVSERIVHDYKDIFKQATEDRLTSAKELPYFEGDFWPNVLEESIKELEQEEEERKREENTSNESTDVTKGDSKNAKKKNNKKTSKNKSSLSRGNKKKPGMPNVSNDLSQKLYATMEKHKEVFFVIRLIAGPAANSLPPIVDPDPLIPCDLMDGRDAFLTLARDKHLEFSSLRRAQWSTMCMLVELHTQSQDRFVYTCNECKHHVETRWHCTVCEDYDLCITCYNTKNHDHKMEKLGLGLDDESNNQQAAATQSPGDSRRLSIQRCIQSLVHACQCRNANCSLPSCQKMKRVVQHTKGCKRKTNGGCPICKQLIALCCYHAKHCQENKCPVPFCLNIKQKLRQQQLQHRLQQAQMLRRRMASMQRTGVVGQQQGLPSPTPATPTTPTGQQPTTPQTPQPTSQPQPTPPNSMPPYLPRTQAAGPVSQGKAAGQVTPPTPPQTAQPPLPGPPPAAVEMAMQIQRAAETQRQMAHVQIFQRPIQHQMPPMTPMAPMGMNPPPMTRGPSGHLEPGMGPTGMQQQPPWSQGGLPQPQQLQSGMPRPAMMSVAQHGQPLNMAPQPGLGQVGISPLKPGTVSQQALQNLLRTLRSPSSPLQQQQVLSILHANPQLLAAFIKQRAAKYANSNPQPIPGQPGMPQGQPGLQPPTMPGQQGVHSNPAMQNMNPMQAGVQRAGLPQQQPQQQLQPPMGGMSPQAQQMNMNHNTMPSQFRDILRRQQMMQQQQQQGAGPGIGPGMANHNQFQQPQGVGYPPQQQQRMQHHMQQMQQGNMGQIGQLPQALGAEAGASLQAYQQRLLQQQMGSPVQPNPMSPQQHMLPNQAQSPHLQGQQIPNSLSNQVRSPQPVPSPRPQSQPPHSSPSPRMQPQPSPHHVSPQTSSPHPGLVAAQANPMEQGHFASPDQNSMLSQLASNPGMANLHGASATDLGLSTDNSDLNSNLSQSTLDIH

CWR22R = experiment: Antiproliferative activity against AR-positive human 22Rv1 cells assessed as cell growth inhibition incubated for 7 days by CellTiter-Glo assay; format: functional; settings: 22Rv1, 168 h, time 7 day
VCaP [10] = experiment: Antitumor activity against human VCaP cells xenografted in castrated NSG mouse assessed as tumor growth inhibition at 3 mg/kg,po qd for 33 days consecutively; format: functional; settings: 792 h, time 33 day, read-out: TGI
VCaP [11] = experiment: Downregulation of PSA expression in AR-positive human VCaP cells at 3.9 to 1000 nM incubated for 72 hrs by Western blot analysis; format: functional, cell-based; settings: dose 3.9-1000 nM
[12] = Toxicity in castrated NSG mouse xenografted with human VCaP cells assessed as mortality at 0.3 to 3 mg/kg,po qd for 33 days consecutively; format: organism-based; settings: in vivo, 792 h, dose 0.3-3 mg/kg, time 33 day
LNCaP [13] = experiment: Antiproliferative activity against AR-positive human LNCaP cells assessed as cell growth inhibition incubated for 7 days by CellTiter-Glo assay; format: functional; settings: 168 h, time 7 day
[14] = Unbound clearance in BALB/cAnNCrlCrlj mouse at 1 mg/kg,iv administered as DMA/Tween80/saline (1:1:8 ratio) solution; format: ADME, organism-based; settings: in vivo
[15] = AUC in BALB/cAnNCrlCrlj mouse at 10 mg/kg,po; format: ADME, organism-based; design: dose 10 mg/kg, route po; settings: in vivo
LNCaP [16] = experiment: Downregulation of PSA expression in AR-positive human LNCaP cells at 3.9 to 1000 nM incubated for 72 hrs by Western blot analysis; format: functional, cell-based; settings: dose 3.9-1000 nM
[17] = Oral bioavailability in BALB/cAnNCrlCrlj mouse at 10 mg/kg; format: ADME, organism-based; settings: in vivo, po, 10 mg/kg
[18] = target: Histone acetyltransferase KAT7 (Homo sapiens, UniProt O95251); experiment: Inhibition of MYST2 (unknown origin) biotinylated H4 (1 to 25)-GSGSK peptide as substrate incubated for 1 hr in presence of acetyl-coA by AlphaLISA assay
[19] = target: Histone acetyltransferase KAT2A (Homo sapiens, UniProt Q92830); experiment: Inhibition of GCN5 (unknown origin) biotinylated H3 (1 to […])-GGK peptide as substrate incubated for 1 hr in presence of acetyl-coA by AlphaLISA assay
VCaP [20] = experiment: Antitumor activity against human VCaP cells xenografted in castrated NSG mouse assessed as decrease in plasma PSA expression at 0.3 to 3 mg/kg,po qd for 33 days consecutively and measured after 6 hrs by ELISA; format: functional, organism-based; settings: dose 0.3-3 mg/kg, time 33.0 day
[21] = Volume of distribution at steady state in BALB/cAnNCrlCrlj mouse at 1 mg/kg,iv administered as DMA/Tween80/saline (1:1:8 ratio) solution; format: ADME, organism-based; settings: in vivo, read-out: Vdss
[22] = Toxicity in castrated NSG mouse xenografted with human VCaP cells assessed as body weight loss at 0.3 to 3 mg/kg,po qd for 33 days consecutively; format: organism-based; settings: in vivo, 792 h, dose 0.3-3 mg/kg, time 33 day
VCaP [23] = experiment: Inhibition of H3K27 acetylation in AR-positive human VCaP cells at 3.9 to 1000 nM incubated for 72 hrs by Western blot analysis; format: functional, cell-based; settings: dose 3.9-1000 nM
[24] = target: Histone acetyltransferase KAT5 (Homo sapiens, UniProt Q92993); experiment: Inhibition of TIP60 (unknown origin) biotinylated H4 (1 to 25)-GSGSK peptide as substrate incubated for 1 hr in presence of acetyl-coA by AlphaLISA assay
Histone acetyltransferase KAT5, sequence (Q92993 whole entry): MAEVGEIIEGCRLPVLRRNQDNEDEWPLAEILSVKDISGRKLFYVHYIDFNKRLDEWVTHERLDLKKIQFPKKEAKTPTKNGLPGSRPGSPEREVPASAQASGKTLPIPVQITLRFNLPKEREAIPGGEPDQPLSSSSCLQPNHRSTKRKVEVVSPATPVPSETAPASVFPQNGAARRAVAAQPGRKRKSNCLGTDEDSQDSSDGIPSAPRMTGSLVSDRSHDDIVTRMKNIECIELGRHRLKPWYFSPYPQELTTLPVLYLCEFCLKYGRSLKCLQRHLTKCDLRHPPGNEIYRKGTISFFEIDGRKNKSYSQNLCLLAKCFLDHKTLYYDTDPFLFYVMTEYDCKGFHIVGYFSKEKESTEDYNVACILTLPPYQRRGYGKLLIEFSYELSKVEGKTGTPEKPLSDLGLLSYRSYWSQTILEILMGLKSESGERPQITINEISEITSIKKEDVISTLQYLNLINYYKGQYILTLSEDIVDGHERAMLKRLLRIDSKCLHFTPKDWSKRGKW

CREB-binding protein = CREB-binding protein (Homo sapiens, UniProt Q92793); experiment: Inhibition of CBP (unknown origin) biotinylated H4 (1 to 25)-GSGSK peptide as substrate incubated for 1 hr in presence of acetyl-coA by AlphaLISA assay
[25] = Metabolic stability in mouse liver microsomes assessed as intrinsic clearance at 1 uM; format: ADME, Microsome
LNCaP [26] = experiment: Inhibition of H3K27 acetylation in AR-positive human LNCaP cells at 3.9 to 1000 nM incubated for 72 hrs by Western blot analysis; format: functional, cell-based; settings: dose 3.9-1000 nM
[27] = target: Histone acetyltransferase KAT6B (Homo sapiens, UniProt Q8WYB5); experiment: Inhibition of MYST4 (unknown origin) biotinylated H4 (1 to 25)-GSGSK peptide as substrate incubated for 1 hr in presence of acetyl-coA by AlphaLISA assay
Histone acetyltransferase KAT6B, sequence (Q8WYB5 whole entry): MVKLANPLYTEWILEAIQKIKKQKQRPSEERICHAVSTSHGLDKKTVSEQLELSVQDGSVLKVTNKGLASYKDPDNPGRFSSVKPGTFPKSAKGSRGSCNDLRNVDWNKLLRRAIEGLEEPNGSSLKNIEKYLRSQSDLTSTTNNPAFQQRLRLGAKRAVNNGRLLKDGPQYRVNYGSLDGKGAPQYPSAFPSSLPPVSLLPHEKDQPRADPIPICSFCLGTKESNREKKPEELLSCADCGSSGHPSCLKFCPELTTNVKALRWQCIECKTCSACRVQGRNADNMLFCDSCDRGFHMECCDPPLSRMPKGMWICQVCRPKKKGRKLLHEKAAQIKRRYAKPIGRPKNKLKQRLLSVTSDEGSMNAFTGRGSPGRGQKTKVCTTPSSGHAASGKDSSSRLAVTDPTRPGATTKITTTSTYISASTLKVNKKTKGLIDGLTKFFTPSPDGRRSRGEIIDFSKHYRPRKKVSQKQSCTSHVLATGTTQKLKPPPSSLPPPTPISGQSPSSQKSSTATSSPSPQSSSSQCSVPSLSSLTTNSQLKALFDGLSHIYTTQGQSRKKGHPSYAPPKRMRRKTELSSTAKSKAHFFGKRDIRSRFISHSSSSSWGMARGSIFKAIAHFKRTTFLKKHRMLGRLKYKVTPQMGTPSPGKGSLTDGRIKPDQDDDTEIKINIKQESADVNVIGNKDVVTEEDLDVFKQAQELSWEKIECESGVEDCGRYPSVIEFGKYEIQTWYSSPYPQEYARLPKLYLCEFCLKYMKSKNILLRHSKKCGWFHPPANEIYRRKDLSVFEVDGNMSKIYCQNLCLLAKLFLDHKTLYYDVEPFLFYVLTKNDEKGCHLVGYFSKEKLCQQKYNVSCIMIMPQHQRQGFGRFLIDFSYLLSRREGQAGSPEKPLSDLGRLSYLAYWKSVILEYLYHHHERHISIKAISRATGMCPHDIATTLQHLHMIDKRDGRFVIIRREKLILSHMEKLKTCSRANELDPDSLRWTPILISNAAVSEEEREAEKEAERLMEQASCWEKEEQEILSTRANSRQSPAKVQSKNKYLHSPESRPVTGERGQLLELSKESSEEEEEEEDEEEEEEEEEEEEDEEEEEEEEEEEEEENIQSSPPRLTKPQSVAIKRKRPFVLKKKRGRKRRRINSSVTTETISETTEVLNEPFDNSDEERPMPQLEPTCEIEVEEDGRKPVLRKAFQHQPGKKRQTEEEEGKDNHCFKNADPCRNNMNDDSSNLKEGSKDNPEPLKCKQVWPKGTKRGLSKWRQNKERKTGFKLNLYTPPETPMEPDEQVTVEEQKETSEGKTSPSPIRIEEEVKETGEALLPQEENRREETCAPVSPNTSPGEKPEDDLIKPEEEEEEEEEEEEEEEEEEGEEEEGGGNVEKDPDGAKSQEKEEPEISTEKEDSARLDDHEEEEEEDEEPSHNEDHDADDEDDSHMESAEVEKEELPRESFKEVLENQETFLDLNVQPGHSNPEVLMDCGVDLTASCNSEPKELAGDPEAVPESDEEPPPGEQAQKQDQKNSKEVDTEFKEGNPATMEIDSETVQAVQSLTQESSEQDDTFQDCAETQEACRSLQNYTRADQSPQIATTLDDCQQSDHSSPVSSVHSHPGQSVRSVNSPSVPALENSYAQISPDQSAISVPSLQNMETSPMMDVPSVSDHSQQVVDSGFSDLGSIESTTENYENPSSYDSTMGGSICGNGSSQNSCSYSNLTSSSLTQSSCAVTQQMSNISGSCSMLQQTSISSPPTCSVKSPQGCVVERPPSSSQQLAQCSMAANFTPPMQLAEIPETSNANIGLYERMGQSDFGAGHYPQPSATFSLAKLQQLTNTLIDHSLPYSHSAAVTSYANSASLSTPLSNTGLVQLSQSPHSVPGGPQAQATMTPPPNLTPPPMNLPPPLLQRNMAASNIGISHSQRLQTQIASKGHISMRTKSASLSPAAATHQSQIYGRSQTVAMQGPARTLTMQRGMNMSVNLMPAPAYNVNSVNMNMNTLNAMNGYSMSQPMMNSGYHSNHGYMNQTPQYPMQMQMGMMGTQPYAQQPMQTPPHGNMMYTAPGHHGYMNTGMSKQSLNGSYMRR

VCaP [28] = experiment: Inhibition of H3K18 acetylation in AR-positive human VCaP cells at 3.9 to 1000 nM incubated for 72 hrs by Western blot analysis; format: functional, cell-based; settings: dose 3.9-1000 nM
VCaP [29] = experiment: Antitumor activity against human VCaP cells xenografted in castrated NSG mouse assessed as tumor growth inhibition at 1 mg/kg,po qd for 33 days consecutively; format: functional; settings: 792 h, time 33 day, read-out: TGI
[30] = Metabolic stability in human liver microsomes assessed as intrinsic clearance at 1 uM; format: ADME, Microsome

## COc1ccc(C2(C(=O)N3C[C@H](F)C[C@@H]3C(=O)Nc3ccc4[nH]ncc4n3)CCC(F)(F)CC2)cc1
LNCaP [1]
  inhibition: Dose-Dependent Effect
VCaP [2]
  inhibition in vivo at 0.3 mg/kg: 39%
[3]
  Cmax: 34 µM
[4]
  fAUC: 5.33 µM·h
[5]
  IC50: > 50000 nM
VCaP [6]
  GI50: 0.6 nM
[7]
  half-life: 2.4 h
PC-3
  GI50: 287 nM
[8]
  logD at 0.5 h: 3
[9]
  IC50: 54 nM
CWR22R
  GI50: 6.5 nM
VCaP [10]
  inhibition in vivo at 3 mg/kg: 109%
VCaP [11]
  Activity: Dose-Dependent Effect
[12]
  Activity: Non-Toxic
LNCaP [13]
  GI50: 3.4 nM
[14]
  CL free: 39 mL/min/kg
[15]
  AUC: 130 µM·h
LNCaP [16]
  Activity: Dose-Dependent Effect
[17]
  F: 21%
[18]
  IC50: > 50000 nM
[19]
  IC50: > 50000 nM
VCaP [20]
  Activity: Dose-Dependent Effect
[21]
  Vd: 0.14 L/kg
[22]
  Activity: Non-Toxic
VCaP [23]
  inhibition: Dose-Dependent Effect
[24]
  IC50: > 50000 nM
CREB-binding protein
  IC50: 1 nM
[25]
  intrinsic clearance (CLint): 50 µL/min/mg
LNCaP [26]
  inhibition: Dose-Dependent Effect
[27]
  IC50: > 50000 nM
VCaP [28]
  inhibition: Dose-Dependent Effect
VCaP [29]
  inhibition in vivo at 1 mg/kg: 74%
[30]
  intrinsic clearance: 50 µL/min/mg
